Source: US20090117200A1, “Fungicide Composition Comprising a Phosphorous Acid Derivative, a Mandelamide Type Compound and a Further Fungicide Compound” (priority 2005, published 2009)

Assays:
[1] = tested on: Plasmopara viticola; test: Example 3: preventive 72 h application on vine downy mildew, phosphorous acid / mandipropamid / folpet, TAMMES analysis; type: in vivo
Method: (§1) Vine plants (variety Cabernet Sauvignon) were grown in a sandy soil in plastic pots with a single plant per pot.
The following ratio was tested: phosphorous acid (A)/mandipropamid (B)/folpet (C) respectively: 1,500 g a.i./ha+75 g a.i./ha+750 g a.i./ha (ratio 20/1/10).
The dose range tested for phosphorous acid equivalent (329 g/kg) was: 3,000 g a.i./ha, 1,500 g a.i./ha, 1,000 g a.i./ha, 750 g a.i./ha, 500 g a.i./ha, 250 g a.i./ha, 80 g a.i./ha, 40 g a.i./ha, 20 g a.i./ha, 10 g a.i./ha, 2 g a.i./ha and 0.2 g a.i./ha.
The dose range for mandipropamid+folpet was: 75+750 g a.i./ha, 4+40 g a.i./ha, 2+20 g a.i./ha, 1+10 g a.i./ha, 0.5+5 g a.i./ha, 0.1+1 g a.i./ha and 0.01+0.1 g a.i./ha.
For the ternary mixture phosphorous acid equivalent+mandipropamid+folpet, the dose range studied was: 1,500+75+750 g a.i./ha, 80+4+40 g a.i./ha, 40+2+20 g a.i./ha, 20+1+10 g a.i./ha, 10+0.5+5 g a.i./ha, 2+0.1+1 g a.i./ha and 0.2+0.01+0.1 g a.i./ha.
(§2) Four days before treatment, phosphorous acid was applied at 1,500 g a.i./ha on plants planned to be treated later with phosphorous acid based product alone or in mixture.
(§3) A three days interval separated treatment and inoculation. Three days after the treatment, each plant was inoculated by spraying an aqueous suspension of sporangia of Plasmopara viticola obtained from infected leaves and sensitive to all the tested compounds. The concentration of sporangia was about 100,000 units per ml.
(§4) After contamination the plants were incubated for 7 days at 22° C. in a saturated atmosphere. Seven days after contamination, symptoms were evaluated in terms of the extent of the lower surface of the leaves infected, in comparison with untreated (UTC) but contamined plants.
(§5) The efficacy of the treatment was calculated using the Abbott formula:
(§6) efficacy=(untreated−treated/untreated)×100
(§7) The concentrations of the fungicide active substances alone or in mixture giving % efficacy for each component were determined based on the sigmoid curve dose/response model with their confidence intervals. The analysis of the results was made according to the TAMMES model (Isoboles, a graphic representation of synergism in pesticides, Neth. J. Plant Path. 70 (1964): 73-80).

[2] = tested on: Plasmopara viticola; test: Example 4: preventive 72 h application on vine downy mildew, phosphorous acid / mandipropamid / mefenoxam, TAMMES analysis; type: in vivo
Method: as §1, §2, §3, §4, §5, §6, §7

[3] = sum of the components, or dose of the single compound, vine, preventive 72 h

OP(O)O [phosphorous acid]
ED70 ([1]; Table 2 of Example 3: calculated according to efficacy observed, 70% of disease control): 6.2 g a.i./ha
ED90 ([1]; Table 2 of Example 3: calculated according to efficacy observed, 90% of disease control): 145 g a.i./ha
Practical dose for 70% efficacy, total [1, 3]: 6.2 g a.i./ha
Practical dose for 90% efficacy, total [1, 3]: 145 g a.i./ha
ED70 ([2]; Table 2 of Example 4: practical 70% of disease control observed): 650 g a.i./ha
ED90 ([2]; Table 2 of Example 4: practical 90% of disease control observed): 1,500 g a.i./ha
